Experimental data taken from patent publication US6277882A, “Utilization of alkyl hydrogen fumarates for treating psoriasis, psoriatic arthritis, neurodermatitis and regional enteritis” (priority 1998, dated 2001).
Where a name gives a salt, the structure may show the parent alone.

What was measured:
[1] = Pharmaceutical equivalency: comparison of pharmacokinetic data (methyl hydrogen fumarate level); conditions: rat, in vivo, 100 mg/kg, dosage 100 mg/kg body-wt.
in vivo = conditions: rat, oral administration; for LD50: in vivo, po
Experimental: Before the clinical trial, the acute toxicity of methyl hydrogen fumarate was tested by oral administration to rats.
Acute toxicity on rats (oral administration)

[2] = high dosages; parenteral, dermal and particularly oral route; cited from earlier work
[3] = test system: toxic effects of Mitomycin C and Aflatoxin; conditions: cited from earlier work
Ehrlich ascites tumour = conditions: mice; cited from earlier work
phosphoslipase A2 = conditions: cited from earlier work
microbes = conditions: cited from earlier work
psoriasis = conditions: cited from earlier work

## COC(=O)/C=C/C(=O)O.[Ca] [Methyl hydrogen fumarate calcium salt]
[1]; female
  Cmax: 107 µg/mL
[1]; male
  Cmax: 51.3 µg/mL

## COC(=O)/C=C/C(=O)O [Methyl hydrogen fumarate, methyl hydrogen fumarate]
[1]; female
  Cmax: 84.8 µg/mL
[1]; male
  Cmax: 69.9 µg/mL
In vivo; female
  LD50: 1780 mg/kg
  Lowest lethal dose in mg/kg: 1,470.0 mg/kg
In vivo; male
  LD50: 2610 mg/kg
  Lowest lethal dose in mg/kg: 2,150.0 mg/kg

## O=C(O)/C(O)=C(\O)C(=O)O [dihydroxy fumaric acid]
[2]
  rate of side effects and toxicity: unacceptable rate of side effects and high toxicity

## NC(=O)/C=C/C(N)=O [fumaramide]
[2]
  rate of side effects and toxicity: unacceptable rate of side effects and high toxicity

## O=C(O)/C=C/C(=O)O [fumaric acid]
[3]
  toxic effects of Mitomycin C and Aflatoxin: reduces the toxic effects of Mitomycin C and Aflatoxin
Ehrlich ascites tumour
  growth of the Ehrlich ascites tumour: inhibits the growth of the Ehrlich ascites tumour in mice
Phosphoslipase A2
  stimulation of phosphoslipase A2: stimulated
microbes
  antimicrobial effect: antimicrobial effect
psoriasis
  anti-psoriatic effect: anti-psoriatic

## N#C/C=C/C#N [fumaronitrile]
[2]
  rate of side effects and toxicity: unacceptable rate of side effects and high toxicity
